Measured values reported in patent publication US6525001B1, “Substituted pyrimidine and pyridine herbicides” (Mid-American Commercialization Corporation, priority 1997, dated 2003).

Tests used:
Format in all cases: in vivo
Set-up in all cases: key: 0 is no effect; 10 is complete control
[1] = tested on: bamyardgrass (Echinochloa crus-galli); assay: Test B flood test
How it was run: (§1)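 Read-out is a visual response score from 0 (no effect) to 10 (complete control), assigned by comparison with untreated controls. Treatment was applied at the 2-leaf stage, and plants stayed in the greenhouse for twelve to sixteen days before scoring.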

[2] = tested on: smallflower flatsedge (Cyperus difformis); assay: Test B flood test
How it was run: as §1

[3] = tested on: duck salad (Heteranthera limosa); assay: Test B flood test
How it was run: as §1

[4] = tested on: rice (Oryza sativa); assay: Test B flood test
How it was run: as §1

[5] = tested on: soybean (Glycine max); assay: Test B pre-/postemergence
Text: (§2) Seeds of bedstraw (Galium aparine), blackgrass (Alopecurus myosuroides), broadleaf signalgrass (Brachiaria decumbens), cocklebur (Xanthium strumarium), corn (Zea mays), crabgrass (Digitaria sanguinalis), giant foxtail (Setaria faberii), lambsquarters (Chenopodium album), momingglory (Ipomoea hederacea), pigweed (Amaranthus retroflexus), rape (Brassica napus), soybean (Glycine max), sugar beet (Beta vulgaris), velvetleaf (Abutilon theophrasti), wheat (Triticum aestivum), wild oat (Avena fatua) and purple nutsedge (Cyperus rotundus) tubers were planted and treated preemergence with test chemicals formulated in a non-phytotoxic solvent mixture which included a surfactant.
(§3) At the same time, these crop and weed species were also treated with postemergence applications of test chemicals formulated in the same manner. Plants ranged in height from 2 to 18 cm (1- to 4-leaf stage) for postemergence treatments. Plant species in the flood test consisted of rice (Oryza sativa), smallflower flatsedge (Cyperus difformis), duck salad (Heteranthera limosa) and bamyardgrass (Echinochloa crus-galli) grown to the 2-leaf stage for testing. Treated plants and controls were maintained in a greenhouse for twelve to sixteen days, after which all species were compared to controls and visually evaluated. Plant response ratings, summarized in Table B, are based on a scale of 0 to 10 where 0 is no effect and 10 is complete control. A dash (−) response means no test result.

[6] = tested on: corn (Zea mays); assay: Test B pre-/postemergence; settings: for Corn plant response rating: Preemergence
Text: as §2, §3

[7] = tested on: bedstraw (Galium aparine); assay: Test B pre-/postemergence; settings: for Bedstraw plant response rating: Preemergence
Text: as §2, §3

[8] = tested on: pigweed (Amaranthus retroflexus); assay: Test B pre-/postemergence
Text: as §2, §3

[9] = tested on: rape (Brassica napus); assay: Test B pre-/postemergence
Text: as §2, §3

[10] = tested on: sugar beet (Beta vulgaris); assay: Test B pre-/postemergence
Text: as §2, §3

[11] = tested on: wild oat (Avena fatua); assay: Test B pre-/postemergence
Text: as §2, §3

[12] = tested on: purple nutsedge (Cyperus rotundus); assay: Test B pre-/postemergence
Text: as §2, §3

[13] = tested on: cocklebur (Xanthium strumarium); assay: Test B pre-/postemergence; settings: for Cocklebur plant response rating: Preemergence
Text: as §2, §3

[14] = tested on: giant foxtail (Setaria faberii); assay: Test B pre-/postemergence
Text: as §2, §3

[15] = tested on: broadleaf signalgrass (Brachiaria decumbens); assay: Test B pre-/postemergence; settings: for B. signalgrass plant response rating: Preemergence
Text: as §2, §3

[16] = tested on: crabgrass (Digitaria sanguinalis); assay: Test B pre-/postemergence; settings: for Crabgrass plant response rating: Preemergence
Text: as §2, §3

[17] = tested on: velvetleaf (Abutilon theophrasti); assay: Test B pre-/postemergence
Text: as §2, §3

[18] = tested on: wheat (Triticum aestivum); assay: Test B pre-/postemergence
Text: as §2, §3

[19] = tested on: blackgrass (Alopecurus myosuroides); assay: Test B pre-/postemergence; settings: for Blackgrass plant response rating: Preemergence
Text: as §2, §3

[20] = tested on: momingglory (Ipomoea hederacea); assay: Test B pre-/postemergence
Text: as §2, §3

[21] = Rate 62 g/ha, Postemergence (flood test)
[22] = Rate 125 g/ha, Postemergence, flood test
[23] = Rate 250 g/ha, Postemergence (flood test species)
[24] = Rate 125 g/ha, Postemergence section (flood test species)
[25] = Rate 250 g/ha, Postemergence (so in the source)

Cc1cnc(-c2cccc(C(F)(F)F)c2)nc1Cc1cccc(C#N)c1 [Compound 39]
Plant response rating, Barnyardgrass [1, 21]: 0
Plant response rating, Barnyardgrass [1, 22]: 0
Plant response rating, Barnyardgrass [1, 23]: 0
Plant response rating, S. Flatsedge [2, 21]: 0
S. Flatsedge plant response rating [2, 24]: 2
Plant response rating, S. Flatsedge [2, 23]: 2
Plant response rating, Ducksalad [3, 21]: 0
Plant response rating, Ducksalad [3, 22]: 0
Plant response rating, Ducksalad [3, 23]: 0
Plant response rating, Rice [4, 21]: 0
Rice plant response rating [4, 24]: 0
Plant response rating, Rice [4, 23]: 0
Plant response rating, Soybean ([5]; Rate 62 g/ha, Postemergence): 1
Soybean plant response rating ([5]; Rate 62 g/ha, Preemergence): 0
Soybean plant response rating ([5]; Rate 125 g/ha, Postemergence): 1
Plant response rating, Soybean ([5]; Rate 125 g/ha, Preemergence): 0
Plant response rating, Soybean ([5]; Rate 250 g/ha, Postemergence): 2
Plant response rating, Soybean [5, 25]: 0
Plant response rating, Corn ([6]; Rate 62 g/ha, Postemergence): 1
Corn plant response rating ([6]; Rate 62 g/ha): 0
Plant response rating, Corn ([6]; Rate 125 g/ha, Postemergence): 1
Corn plant response rating ([6]; Rate 125 g/ha): 0
Plant response rating, Corn ([6]; Rate 250 g/ha, Postemergence): 1
Plant response rating, Corn [6, 25]: 0
Plant response rating, Bedstraw ([7]; Rate 62 g/ha, Postemergence): 3
Bedstraw plant response rating ([7]; Rate 62 g/ha): 0
Plant response rating, Bedstraw ([7]; Rate 125 g/ha, Postemergence): 3
Bedstraw plant response rating ([7]; Rate 125 g/ha): 0
Plant response rating, Bedstraw ([7]; Rate 250 g/ha, Postemergence): 4
Plant response rating, Bedstraw [7, 25]: 0
Plant response rating, Redroot pigweed ([8]; Rate 62 g/ha, Postemergence): 2
Redroot pigweed plant response rating ([8]; Rate 62 g/ha, Preemergence): 0
Redroot pigweed plant response rating ([8]; Rate 125 g/ha, Postemergence): 2
Redroot pigweed plant response rating ([8]; Rate 125 g/ha, Preemergence): 0
Plant response rating, Redroot pigweed ([8]; Rate 250 g/ha, Postemergence): 3
Plant response rating, Redroot pigweed [8, 25]: 0
Plant response rating, Rape ([9]; Rate 62 g/ha, Postemergence): 1
Rape plant response rating ([9]; Rate 62 g/ha, Preemergence): 0
Rape plant response rating ([9]; Rate 125 g/ha, Postemergence): 1
Rape plant response rating ([9]; Rate 125 g/ha, Preemergence): 0
Plant response rating, Rape ([9]; Rate 250 g/ha, Postemergence): 4
Plant response rating, Rape [9, 25]: 0
Plant response rating, Sugarbeets ([10]; Rate 62 g/ha, Postemergence): 7
Sugarbeets plant response rating ([10]; Rate 62 g/ha, Preemergence): 0
Sugarbeets plant response rating ([10]; Rate 125 g/ha, Postemergence): 9
Plant response rating, Sugarbeets ([10]; Rate 125 g/ha, Preemergence): 0
Plant response rating, Sugarbeets ([10]; Rate 250 g/ha, Postemergence): 10
Plant response rating, Sugarbeets [10, 25]: 0
Wild oats plant response rating ([11]; Rate 62 g/ha, Postemergence): 1
Wild oats plant response rating ([11]; Rate 62 g/ha, Preemergence): 0
Wild oats plant response rating ([11]; Rate 125 g/ha, Postemergence): 1
Plant response rating, Wild oats ([11]; Rate 125 g/ha, Preemergence): 0
Plant response rating, Wild oats ([11]; Rate 250 g/ha, Postemergence): 1
Plant response rating, Wild oats [11, 25]: 0
Plant response rating, Nutsedge ([12]; Rate 62 g/ha, Postemergence): 0
Nutsedge plant response rating ([12]; Rate 62 g/ha, Preemergence): 0
Nutsedge plant response rating ([12]; Rate 125 g/ha, Postemergence): 0
Nutsedge plant response rating ([12]; Rate 125 g/ha, Preemergence): 0
Plant response rating, Nutsedge ([12]; Rate 250 g/ha, Postemergence): 0
Plant response rating, Nutsedge [12, 25]: 0
Plant response rating, Cocklebur ([13]; Rate 62 g/ha, Postemergence): 2
Cocklebur plant response rating ([13]; Rate 62 g/ha): 0
Plant response rating, Cocklebur ([13]; Rate 125 g/ha, Postemergence): 2
Cocklebur plant response rating ([13]; Rate 125 g/ha): 0
Plant response rating, Cocklebur ([13]; Rate 250 g/ha, Postemergence): 5
Plant response rating, Cocklebur [13, 25]: 0
Plant response rating, Giant foxtail ([14]; Rate 62 g/ha, Postemergence): 0
Giant foxtail plant response rating ([14]; Rate 62 g/ha, Preemergence): 0
Giant foxtail plant response rating ([14]; Rate 125 g/ha, Postemergence): 1
Giant foxtail plant response rating ([14]; Rate 125 g/ha, Preemergence): 0
Plant response rating, Giant foxtail ([14]; Rate 250 g/ha, Postemergence): 1
Plant response rating, Giant foxtail [14, 25]: 0
Plant response rating, B. signalgrass ([15]; Rate 62 g/ha, Postemergence): 1
B. signalgrass plant response rating ([15]; Rate 62 g/ha): 0
Plant response rating, B. signalgrass ([15]; Rate 125 g/ha, Postemergence): 1
B. signalgrass plant response rating ([15]; Rate 125 g/ha): 0
Plant response rating, B. signalgrass ([15]; Rate 250 g/ha, Postemergence): 1
Plant response rating, B. signalgrass ([15]; Rate 250 g/ha, Postemergence as printed in head r139 (second section for compounds 26-50)): 0
Plant response rating, Crabgrass ([16]; Rate 62 g/ha, Postemergence): 0
Crabgrass plant response rating ([16]; Rate 62 g/ha): 0
Plant response rating, Crabgrass ([16]; Rate 125 g/ha, Postemergence): 0
Crabgrass plant response rating ([16]; Rate 125 g/ha): 0
Plant response rating, Crabgrass ([16]; Rate 250 g/ha, Postemergence): 1
Plant response rating, Crabgrass [16, 25]: 0
Plant response rating, Velvetleaf ([17]; Rate 62 g/ha, Postemergence): 0
Velvetleaf plant response rating ([17]; Rate 62 g/ha, Preemergence): 0
Velvetleaf plant response rating ([17]; Rate 125 g/ha, Postemergence): 1
Plant response rating, Velvetleaf ([17]; Rate 125 g/ha, Preemergence): 0
Plant response rating, Velvetleaf ([17]; Rate 250 g/ha, Postemergence): 1
Plant response rating, Velvetleaf [17, 25]: 0
Wheat plant response rating ([18]; Rate 62 g/ha, Postemergence): 0
Wheat plant response rating ([18]; Rate 62 g/ha, Preemergence): 0
Wheat plant response rating ([18]; Rate 125 g/ha, Postemergence): 1
Plant response rating, Wheat ([18]; Rate 125 g/ha, Preemergence): 0
Plant response rating, Wheat ([18]; Rate 250 g/ha, Postemergence): 1
Plant response rating, Wheat [18, 25]: 0
Plant response rating, Blackgrass ([19]; Rate 62 g/ha, Postemergence): 1
Blackgrass plant response rating ([19]; Rate 62 g/ha): 0
Plant response rating, Blackgrass ([19]; Rate 125 g/ha, Postemergence): 1
Blackgrass plant response rating ([19]; Rate 125 g/ha): 0
Plant response rating, Blackgrass ([19]; Rate 250 g/ha, Postemergence): 1
Plant response rating, Blackgrass [19, 25]: 0
Plant response rating, Morningglory ([20]; Rate 62 g/ha, Postemergence): 1
Morningglory plant response rating ([20]; Rate 62 g/ha, Preemergence): 0
Morningglory plant response rating ([20]; Rate 125 g/ha, Postemergence): 1
Morningglory plant response rating ([20]; Rate 125 g/ha, Preemergence): 0
Plant response rating, Morningglory ([20]; Rate 250 g/ha, Postemergence): 1
Plant response rating, Morningglory [20, 25]: 0
